In paper PMC2857986 (Journal of the American Chemical Society, 2010):

Test: Gel formation and CD of expected cleavage fragments
Assay type: physicochemical

## KSLSLS [MDP4a]
Phosphate buffer, physiological pH, in words
  Gel formation / self-assembly: no longer able to assemble and form insoluble aggregates
See supporting information
  CD spectrum (secondary structure): simple random coil signature
